Data: patent publication US9850283B2, “Macrocyclic inhibitors of the PD-1/PD-L1 and CD80(B7-1)/PD-L1 protein/protein interactions” (BRISTOL-MYERS SQUIBB COMPANY, priority 2013, dated 2017)
Starred links: 1 amine or outer side, 2 acyl side, 3 side chain; linkers in the order of their positions; H or OH if unused. Positions of bridges follow the written chain, without caps; N, C: chain ends. Non-standard residues stand in square brackets, D forms with d. Residues, ends and D or L forms follow the SMILES beside them. ξ: configuration not given here. X13 = COc1ccc2c(O[C@@H]3C[C@@H](C(=O)[*:2])N([*:1])C3)nccc2c1; X19 = CCCOc1cccc(-c2[nH]c3ccccc3c2C[C@H](N[*:1])C(=O)[*:2])c1; X5 = CCCOc1ccc(-c2[nH]c3ccccc3c2C[C@H](N[*:1])C(=O)[*:2])cc1; X2 = CCOc1ccc(-c2[nH]c3ccccc3c2C[C@H](N[*:1])C(=O)[*:2])cc1; X6 = O=C([C@H](Cc1c(-c2ccc(F)cc2)[nH]c2ccccc12)N[*:1])[*:2]; X7 = COc1ccc(-c2[nH]c3ccccc3c2C[C@H](N[*:1])C(=O)[*:2])cc1; X8 = COc1cccc(-c2[nH]c3ccccc3c2C[C@H](N[*:1])C(=O)[*:2])c1; X9 = O=C([C@@H]1C[C@@H](Oc2nc3ccccc3cc2Br)CN1[*:1])[*:2]; Trp(2-Ph) = N[C@@H](Cc1c(-c2ccccc2)[nH]c2ccccc12)C(=O)O; Hyp = O=C(O)[C@@H]1C[C@@H](O)CN1; Pip(4-aza) = O=C(O)[C@@H]1CNCCN1; NMeNle = CCCC[C@H](NC)C(=O)O; ξR = N=C(N)NCCCC(N)C(=O)O; NMeA = CN[C@@H](C)C(=O)O; Dab = NCC[C@H](N)C(=O)O; Dap = NC[C@H](N)C(=O)O

Tests used:
Human PD-L1/PD-1 = target: T1, Human PD-L1/PD-1 (Homo sapiens, UniProt Q9NZQ7); assay: HTRF PD-1-Ig/PD-L1-His binding assay (human PD-L1); conditions: cluster symbol; read-out: HTRF IC50 cluster
T1 construct: made in house; host or cells: HEK293T
T1 sequence (Q9NZQ7 with tags, fused parts or gaps): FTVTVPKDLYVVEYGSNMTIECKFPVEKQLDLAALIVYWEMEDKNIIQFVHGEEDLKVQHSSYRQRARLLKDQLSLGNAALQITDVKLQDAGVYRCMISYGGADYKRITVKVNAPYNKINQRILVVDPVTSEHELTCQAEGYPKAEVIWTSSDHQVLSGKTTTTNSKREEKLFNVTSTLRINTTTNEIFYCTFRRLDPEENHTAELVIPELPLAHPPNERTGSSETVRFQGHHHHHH
Method in brief: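 Soluble PD-1-Ig binding to PD-L1-His measured by HTRF in dPBS with 0.1% BSA and 0.05% Tween-20. Detection used europium cryptate anti-Ig antibody (1 nM final) and APC anti-His antibody (20 nM final) added on top of the binding reaction.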

[1] = target: T2, LK35.2-hPD-L1 cells / PE-labeled PD-1-Ig (Homo sapiens, UniProt Q9NZQ7); assay: LK35.2-hPD-L1 cell binding high-content screening assay; assay type: cell-based; conditions: cell binding assay, cell line not given; cluster symbol; read-out: CBA IC50 cluster
T2 construct: expressed in transfected cells; host or cells: LK35.2 mouse B cell line
T2 sequence (Q9NZQ7 19-290): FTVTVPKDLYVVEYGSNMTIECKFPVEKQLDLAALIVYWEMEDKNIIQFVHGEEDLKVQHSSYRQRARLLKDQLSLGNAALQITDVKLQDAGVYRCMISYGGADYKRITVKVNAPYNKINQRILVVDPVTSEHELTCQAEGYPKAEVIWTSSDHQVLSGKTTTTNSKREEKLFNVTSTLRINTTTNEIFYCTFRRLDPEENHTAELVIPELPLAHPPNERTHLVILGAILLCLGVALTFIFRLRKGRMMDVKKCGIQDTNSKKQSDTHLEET
Method in brief: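 Mouse LK35.2 B cells stably overexpressing human PD-L1 were cultured overnight in RPMI with 10% FCS, then given compound and PE-labeled human PD-1-Ig (1 nM final) for 1 h at 37 °C. After three dPBS washes, bound fluorescence was quantified by high-content imaging.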

Compound	IC50 (Human PD-L1/PD-1)	IC50 [1]
CCCC[C@H]1C(=O)N(C)[C@@H](CCCC)C(=O)N[C@@H](CC(C)C)C(=O)N[C@H](C(=O)NCC(N)=O)CSCC(=O)N[C@@H](Cc2ccc(O)cc2)C(=O)N(C)[C@@H](C)C(=O)N[C@@H](CC(N)=O)C(=O)N2CCC[C@H]2C(=O)N[C@@H](CN)C(=O)N[C@@H](CC(C)C)C(=O)N2C[C@H](Oc3nccc4cc(OC)ccc34)C[C@H]2C(=O)N[C@@H](Cc2c[nH]c3ccccc23)C(=O)N[C@@H](CCN)C(=O)N[C@@H](Cc2c[nH]c3ccccc23)C(=O)N1C [Example 6048] ({CH2CO}-Y[NMeA]NP[Dap]L[X13]W[Dab]W[NMeNle][NMeNle]LCG-NH2; thioether N-14)	6.76 to 30.3 nM	4.78 to 72.9 nM
CCCC[C@H]1C(=O)N(C)[C@@H](CCCC)C(=O)N[C@@H](CC(C)C)C(=O)N[C@H](C(=O)NCC(N)=O)CSCC(=O)N[C@@H](Cc2ccc(O)cc2)C(=O)N(C)[C@@H](C)C(=O)N[C@@H](CC(N)=O)C(=O)N2CCC[C@H]2C(=O)N[C@@H](CN)C(=O)N[C@@H](CC(C)C)C(=O)N2C[C@H](Oc3nc4ccccc4cc3Br)C[C@H]2C(=O)N[C@@H](Cc2c[nH]c3ccccc23)C(=O)N[C@@H](CCN)C(=O)N[C@@H](Cc2c[nH]c3ccccc23)C(=O)N1C [Example 6049] ({CH2CO}-Y[NMeA]NP[Dap]L[X9]W[Dab]W[NMeNle][NMeNle]LCG-NH2; thioether N-14)	0.385 to 6.74 nM	4.78 to 72.9 nM
CCCC[C@H]1C(=O)N(C)[C@@H](CCCC)C(=O)N[C@@H](CC(C)C)C(=O)N[C@H](C(=O)NCC(N)=O)CSCC(=O)N[C@@H](Cc2ccc(O)cc2)C(=O)N(C)[C@@H](C)C(=O)N[C@@H](CC(N)=O)C(=O)N2CCC[C@H]2C(=O)N[C@@H](CN)C(=O)N[C@@H](CC(C)C)C(=O)N2CCNC[C@H]2C(=O)N[C@@H](Cc2c[nH]c3ccccc23)C(=O)N[C@@H](CCN)C(=O)N[C@@H](Cc2c[nH]c3ccccc23)C(=O)N1C [Example 6050] ({CH2CO}-Y[NMeA]NP[Dap]L[Pip(4-aza)]W[Dab]W[NMeNle][NMeNle]LCG-NH2; thioether N-14)	0.385 to 6.74 nM	4.78 to 72.9 nM
CCCC[C@H]1C(=O)N(C)[C@@H](CCCC)C(=O)NC(CCCNC(=N)N)C(=O)N[C@H](C(=O)NCC(N)=O)CSCC(=O)N[C@@H](Cc2ccc(O)cc2)C(=O)N(C)[C@@H](C)C(=O)N[C@@H](CC(N)=O)C(=O)N2CCC[C@H]2C(=O)N[C@@H](Cc2cnc[nH]2)C(=O)N[C@@H](CC(C)C)C(=O)N2CCC[C@H]2C(=O)N[C@@H](Cc2c[nH]c3ccccc23)C(=O)N[C@@H](CO)C(=O)N[C@@H](Cc2c(-c3ccccc3)[nH]c3ccccc23)C(=O)N1C (stereo partly shown) [Example 7001] ({CH2CO}-Y[NMeA]NPHLPWS[Trp(2-Ph)][NMeNle][NMeNle][ξR]CG-NH2; thioether N-14)	0.385 to 6.74 nM	0.158 to 4.71 nM
CCCC[C@H]1C(=O)N(C)[C@@H](CCCC)C(=O)NC(CCCNC(=N)N)C(=O)N[C@H](C(=O)NCC(N)=O)CSCC(=O)N[C@@H](Cc2ccc(O)cc2)C(=O)N(C)[C@@H](C)C(=O)N[C@@H](CC(N)=O)C(=O)N2CCC[C@H]2C(=O)N[C@@H](CN)C(=O)N[C@@H](CC(C)C)C(=O)N2C[C@H](O)C[C@H]2C(=O)N[C@@H](Cc2c[nH]c3ccccc23)C(=O)N[C@@H](CO)C(=O)N[C@@H](Cc2c(-c3ccc(F)cc3)[nH]c3ccccc23)C(=O)N1C (stereo partly shown) [Example 7002] ({CH2CO}-Y[NMeA]NP[Dap]L[Hyp]WS[X6][NMeNle][NMeNle][ξR]CG-NH2; thioether N-14)	0.385 to 6.74 nM	0.158 to 4.71 nM
CCCC[C@H]1C(=O)N(C)[C@@H](CCCC)C(=O)NC(CCCNC(=N)N)C(=O)N[C@H](C(=O)NCC(N)=O)CSCC(=O)N[C@@H](Cc2ccc(O)cc2)C(=O)N(C)[C@@H](C)C(=O)N[C@@H](CC(N)=O)C(=O)N2CCC[C@H]2C(=O)N[C@@H](CN)C(=O)N[C@@H](CC(C)C)C(=O)N2C[C@H](O)C[C@H]2C(=O)N[C@@H](Cc2c[nH]c3ccccc23)C(=O)N[C@@H](CO)C(=O)N[C@@H](Cc2c(-c3cccc(OC)c3)[nH]c3ccccc23)C(=O)N1C (stereo partly shown) [Example 7003] ({CH2CO}-Y[NMeA]NP[Dap]L[Hyp]WS[X8][NMeNle][NMeNle][ξR]CG-NH2; thioether N-14)	0.385 to 6.74 nM	4.78 to 72.9 nM
CCCC[C@H]1C(=O)N(C)[C@@H](CCCC)C(=O)NC(CCCNC(=N)N)C(=O)N[C@H](C(=O)NCC(N)=O)CSCC(=O)N[C@@H](Cc2ccc(O)cc2)C(=O)N(C)[C@@H](C)C(=O)N[C@@H](CC(N)=O)C(=O)N2CCC[C@H]2C(=O)N[C@@H](CN)C(=O)N[C@@H](CC(C)C)C(=O)N2C[C@H](O)C[C@H]2C(=O)N[C@@H](Cc2c[nH]c3ccccc23)C(=O)N[C@@H](CO)C(=O)N[C@@H](Cc2c(-c3cccc(OCCC)c3)[nH]c3ccccc23)C(=O)N1C (stereo partly shown) [Example 7004] ({CH2CO}-Y[NMeA]NP[Dap]L[Hyp]WS[X19][NMeNle][NMeNle][ξR]CG-NH2; thioether N-14)	0.385 to 6.74 nM	4.78 to 72.9 nM
CCCC[C@H]1C(=O)N(C)[C@@H](CCCC)C(=O)NC(CCCNC(=N)N)C(=O)N[C@H](C(=O)NCC(N)=O)CSCC(=O)N[C@@H](Cc2ccc(O)cc2)C(=O)N(C)[C@@H](C)C(=O)N[C@@H](CC(N)=O)C(=O)N2CCC[C@H]2C(=O)N[C@@H](CN)C(=O)N[C@@H](CC(C)C)C(=O)N2C[C@H](O)C[C@H]2C(=O)N[C@@H](Cc2c[nH]c3ccccc23)C(=O)N[C@@H](CO)C(=O)N[C@@H](Cc2c(-c3ccc(OCCC)cc3)[nH]c3ccccc23)C(=O)N1C (stereo partly shown) [Example 7005] ({CH2CO}-Y[NMeA]NP[Dap]L[Hyp]WS[X5][NMeNle][NMeNle][ξR]CG-NH2; thioether N-14)	0.385 to 6.74 nM	4.78 to 72.9 nM
CCCC[C@H]1C(=O)N(C)[C@@H](CCCC)C(=O)NC(CCCNC(=N)N)C(=O)N[C@H](C(=O)NCC(N)=O)CSCC(=O)N[C@@H](Cc2ccc(O)cc2)C(=O)N(C)[C@@H](C)C(=O)N[C@@H](CC(N)=O)C(=O)N2CCC[C@H]2C(=O)N[C@@H](CN)C(=O)N[C@@H](CC(C)C)C(=O)N2C[C@H](O)C[C@H]2C(=O)N[C@@H](Cc2c[nH]c3ccccc23)C(=O)N[C@@H](CO)C(=O)N[C@@H](Cc2c(-c3ccc(OC)cc3)[nH]c3ccccc23)C(=O)N1C (stereo partly shown) [Example 7006] ({CH2CO}-Y[NMeA]NP[Dap]L[Hyp]WS[X7][NMeNle][NMeNle][ξR]CG-NH2; thioether N-14)	0.385 to 6.74 nM	0.158 to 4.71 nM
CCCC[C@H]1C(=O)N(C)[C@@H](CCCC)C(=O)NC(CCCNC(=N)N)C(=O)N[C@H](C(=O)NCC(N)=O)CSCC(=O)N[C@@H](Cc2ccc(O)cc2)C(=O)N(C)[C@@H](C)C(=O)N[C@@H](CC(N)=O)C(=O)N2CCC[C@H]2C(=O)N[C@@H](CN)C(=O)N[C@@H](CC(C)C)C(=O)N2CCC[C@H]2C(=O)N[C@@H](Cc2c[nH]c3ccccc23)C(=O)N[C@@H](CO)C(=O)N[C@@H](Cc2c(-c3ccc(OC)cc3)[nH]c3ccccc23)C(=O)N1C (stereo partly shown) [Example 7008] ({CH2CO}-Y[NMeA]NP[Dap]LPWS[X7][NMeNle][NMeNle][ξR]CG-NH2; thioether N-14)	0.385 to 6.74 nM	0.158 to 4.71 nM
CCCC[C@H]1C(=O)N(C)[C@@H](CCCC)C(=O)NC(CCCNC(=N)N)C(=O)N[C@H](C(=O)NCC(N)=O)CSCC(=O)N[C@@H](Cc2ccc(O)cc2)C(=O)N(C)[C@@H](C)C(=O)N[C@@H](CC(N)=O)C(=O)N2CCC[C@H]2C(=O)N[C@@H](CN)C(=O)N[C@@H](CC(C)C)C(=O)N2C[C@H](O)C[C@H]2C(=O)N[C@@H](Cc2c[nH]c3ccccc23)C(=O)N[C@@H](CO)C(=O)N[C@@H](Cc2c(-c3ccc(OCC)cc3)[nH]c3ccccc23)C(=O)N1C (stereo partly shown) [Example 7009] ({CH2CO}-Y[NMeA]NP[Dap]L[Hyp]WS[X2][NMeNle][NMeNle][ξR]CG-NH2; thioether N-14)	0.385 to 6.74 nM	0.158 to 4.71 nM
CCCC[C@H]1C(=O)N(C)[C@@H](CCCC)C(=O)NC(CCCNC(=N)N)C(=O)N[C@H](C(=O)NCC(N)=O)CSCC(=O)N[C@@H](Cc2ccc(O)cc2)C(=O)N(C)[C@@H](C)C(=O)N[C@@H](CC(N)=O)C(=O)N2CCC[C@H]2C(=O)N[C@@H](CCN)C(=O)N[C@@H](CC(C)C)C(=O)N2C[C@H](O)C[C@H]2C(=O)N[C@@H](Cc2c[nH]c3ccccc23)C(=O)N[C@@H](CO)C(=O)N[C@@H](Cc2c(-c3ccc(OCC)cc3)[nH]c3ccccc23)C(=O)N1C (stereo partly shown) [Example 7010] ({CH2CO}-Y[NMeA]NP[Dab]L[Hyp]WS[X2][NMeNle][NMeNle][ξR]CG-NH2; thioether N-14)	0.385 to 6.74 nM	4.78 to 72.9 nM
CCCC[C@H]1C(=O)N(C)[C@@H](CCCC)C(=O)NC(CCCNC(=N)N)C(=O)N[C@H](C(=O)NCC(N)=O)CSCC(=O)N[C@@H](Cc2ccc(O)cc2)C(=O)N(C)[C@@H](C)C(=O)N[C@@H](CC(N)=O)C(=O)N2CCC[C@H]2C(=O)N[C@@H](CN)C(=O)N[C@@H](CC(C)C)C(=O)N2CCC[C@H]2C(=O)N[C@@H](Cc2c[nH]c3ccccc23)C(=O)N[C@@H](CO)C(=O)N[C@@H](Cc2c(-c3ccc(OCC)cc3)[nH]c3ccccc23)C(=O)N1C (stereo partly shown) [Example 7011] ({CH2CO}-Y[NMeA]NP[Dap]LPWS[X2][NMeNle][NMeNle][ξR]CG-NH2; thioether N-14)	0.385 to 6.74 nM	4.78 to 72.9 nM
CCCC[C@H]1C(=O)N(C)[C@@H](CCCC)C(=O)N[C@@H](CCCNC(=N)N)C(=O)N[C@H](C(=O)NCC(N)=O)C/C=C/C(=O)N[C@@H](Cc2ccc(O)cc2)C(=O)N(C)[C@@H](C)C(=O)N[C@@H](CC(N)=O)C(=O)N2CCCC2C(=O)N[C@@H](Cc2cnc[nH]2)C(=O)N[C@@H](CC(C)C)C(=O)N2CCC[C@H]2C(=O)N[C@@H](Cc2c[nH]c3ccccc23)C(=O)N[C@@H](CO)C(=O)N[C@@H](Cc2c[nH]c3ccccc23)C(=O)N1C (stereo partly shown) [Example 7012]	> 30.5 nM	> 74.3 nM
